{"source": "patent US8048915B2", "about": "“Biologically active complex” (BioMas Ltd., priority 2001, dated 2011)", "key": {"[1]": {"system": "IL-2 receptors of human mononuclear cells", "assay": "Induction of IL-2 receptors of human mononuclear cells (proliferation with recombinant IL-2, 3H thymidine uptake)", "assay_type": "cell-based", "method": "Human MNC were brought to a concentration of 10^6 cells/ml. RPMI+10% FCS. Aliquots of 0.2 ml. were placed in duplicate wells of microdishes and plates were incubated at 37° C. for 24 hrs. […] Plates were further incubated for 48 hrs and labeled with ^3H thymidine 24 hrs before harvesting. The proliferation was measured by ^3HT uptake as described by Gillis et al, J. Immunol. […] The results are expressed in counts per minute."}, "[2]": {"system": "V-mos transformed NIH-3T3 cells", "assay": "Colony growth of V-mos transformed NIH-3T3 cells", "assay_type": "cell-based", "conditions": "one week; clones counted", "method": "(§1) 5×10^2 cells were plated per 60 mm dish and incubated with different concentrations (0.005-5 μg/ml) of the complex in PBS. A week later, the cells were stained with Gimsa and clones were counted. Similar experiments were conducted using V-mos transformed NIH-3T3 cells, and also using Ph2TeCl2 and Ph3TeCl, with both types of transformed cells."}, "[3]": {"system": "Ha-Ras transformed NIH-3T3 cells", "assay": "Colony growth of Ha-Ras transformed NIH-3T3 cells", "assay_type": "cell-based", "conditions": "0.005-5 μg/ml in PBS; one week; clones counted", "method": "as §1"}, "[4]": {"assay": "Solubility in phosphate buffer solution (PBS) at pH7", "assay_type": "physicochemical"}, "IL-2 receptors": {"system": "IL-2 receptors", "assay": "IL-2 receptor sites on human mononuclear cells, fluoresceinated antibody", "assay_type": "cell-based", "method": "This example provides an assay to detect the presence of receptor sites for IL-2. […] The cells were washed twice with PBS and then incubated with a specific fluoresceinated antibody against IL-2 receptors as described in Uchiyama et al, J. Immunol."}, "human mononuclear cells [5]": {"system": "human mononuclear cells", "assay": "Proliferation of human mononuclear cells (Example 14)", "assay_type": "cell-based", "conditions": "72 hours + 24 hours label"}, "human mononuclear cells [6]": {"system": "human mononuclear cells", "assay": "Proliferation of human mononuclear cells (Example 14)", "assay_type": "cell-based", "conditions": "for proliferation of human mononuclear cells (3H methyl-thymidine): 72 hours + 24 hours label", "method": "Human mononuclear cells were obtained by layering heparinized blood over a Ficoll/Hypaque gradient. The mononuclear cells were resuspended in enriched RPMI, rinsed three times and brought to a concentrations of 5×10^5cells/ml enriched RPMI. Varying concentrations of the complexes of Ex. 1 and Ex. 7(a), ranging from 0.005 μg to 5 μg/cell mixture were added to the cells. Aliquots of 0.2 ml of each sample were placed in wells of microplates (triplicates)."}, "human mononuclear cells [7]": {"system": "human mononuclear cells", "conditions": "range of 1 to 10 ng/ml of cells; 72 hours incubation", "method": "Aliquots of 0.2 ml from each sample were placed in wells of microplates (NUNC) (triplicates). […] Cells were further incubated overnight and harvested with a cell harvester.\nCells were further incubated overnight and harvested with a cell harvester."}, "IL-2": {"system": "IL-2", "method": "The complexes were administered in these dilutions, as drinking water, to male Balb-C mice, 6-8 weeks of age over a 4 day period. The exact amount of liquid intake was recorded daily. […] The cells were incubated at a concentration of 10^7 cells/ml in enriched RPMI containing 2 μg/ml of con-A for 24 hours at 37° C. The supernatants were collected and tested for IL-2 content."}, "[8]": {"conditions": "10 μg/ml H2O as drinking water over 4 days"}}, "note": "“And” between values parts separate entries of the source, which are not always exact repeats. Identical values can stand only once. Like-named read-outs stand apart in the source and are kept apart here.", "data": [{"compound": "equimolar complex of TeO2 and ethane-1,2-diol [7(b)]", "values": [{"measurement": "proliferation, 3HT uptake", "setting": "[1]; Test B, 1 μg/ml", "value": 2620, "unit": "counts per minute"}, {"measurement": "proliferation, 3HT uptake", "setting": "[1]; Test B, 1 × 10^−2 μg/ml", "value": 3928, "unit": "counts per minute"}, {"measurement": "proliferation, 3HT uptake", "setting": "[1]; Test B, 1 × 10^−3 μg/ml", "value": 3007, "unit": "counts per minute"}, {"measurement": "proliferation, 3HT uptake", "setting": "[1]; Test B, 1 × 10^−4 μg/ml", "value": 2327, "unit": "counts per minute"}, {"measurement": "proliferation, 3HT uptake", "setting": "[1]; Test B, 1 × 10^−5 μg/ml", "value": 2242, "unit": "counts per minute"}, {"measurement": "proliferation, 3HT uptake", "setting": "[1]; Test B, 5 × 10^−1 μg/ml", "value": 2402, "unit": "counts per minute"}, {"measurement": "proliferation, 3HT uptake", "setting": "[1]; Test B, 5 × 10^−2 μg/ml", "value": 3290, "unit": "counts per minute"}, {"measurement": "proliferation, 3HT uptake", "setting": "[1]; Test B, 7 × 10^−1 μg/ml", "value": 2000, "unit": "counts per minute"}]}, {"compound": "Cl[Te](Cl)(c1ccccc1)c1ccccc1", "note": "[Ph2TeCl2, reference compound]", "values": [{"measurement": "inhibition of growth", "setting": "[2]", "value": "none of the complex, Ph2TeCl2 or Ph3TeCl inhibited the growth"}, {"measurement": "number of colonies / growth compared with control", "setting": "[3]", "value": "did not inhibit their growth"}]}, {"compound": "Cl[Te](Cl)(Cl)Cl", "note": "[TeCl4, tellurium tetrachloride]", "values": [{"measurement": "solubility", "setting": "[4]", "value": "2.3 ± 0.1; mg Te/100 ml PBS"}]}, {"compound": "Cl[Te](c1ccccc1)(c1ccccc1)c1ccccc1", "note": "[Ph3TeCl, reference compound]", "values": [{"measurement": "inhibition of growth", "setting": "[2]", "value": "none of the complex, Ph2TeCl2 or Ph3TeCl inhibited the growth"}, {"measurement": "number of colonies / growth compared with control", "setting": "[3]", "value": "did not inhibit their growth"}]}, {"compound": "Phytohemagglutinin M [Phytohemagglutinin M (Difco), reference compound]", "values": [{"measurement": "cells positive for IL-2 receptors", "setting": "IL-2 receptors; in the presence of PHA, concentration not given", "value": 80, "unit": "%"}, {"measurement": "proliferation, 3HT uptake", "setting": "[1]; Test A, positive control, concentration not given", "value": "Phytohemagglutinin M (Difco) 195,432 counts per minute"}, {"measurement": "proliferation, 3HT uptake", "setting": "[1]; Test B, positive control, concentration not given", "value": "Phytohemagglutinin M (Difco) 125,272 counts per minute"}]}, {"compound": "O=[Te]=O", "note": "[TeO2, Tellurium dioxide, reference compound]", "values": [{"measurement": "proliferation of human mononuclear cells (3H methyl-thymidine)", "setting": "human mononuclear cells [5]; 1 × 10^−3 μg/ml", "value": 6168}, {"measurement": "proliferation of human mononuclear cells (3H methyl-thymidine)", "setting": "human mononuclear cells [5]; 1 × 10^−4 μg/ml", "value": 5331}, {"measurement": "cells positive for IL-2 receptors", "setting": "IL-2 receptors; 1 μg/ml, 24 hours incubation", "value": 5, "unit": "%"}, {"measurement": "proliferation of human mononuclear cells (3H methyl-thymidine)", "setting": "human mononuclear cells [6]; 1 μg/ml", "value": 2842}, {"measurement": "proliferation of human mononuclear cells (3H methyl-thymidine)", "setting": "human mononuclear cells [6]; 5 μg/ml", "value": 3028}, {"measurement": "proliferation of human mononuclear cells (3H methyl-thymidine)", "setting": "human mononuclear cells [6]; 1 × 10^−1 μg/ml", "value": 4825}, {"measurement": "proliferation of human mononuclear cells (3H methyl-thymidine)", "setting": "human mononuclear cells [6]; 1 × 10^−2 μg/ml", "value": 4730}, {"measurement": "proliferation of human mononuclear cells (3H methyl-thymidine)", "setting": "human mononuclear cells [6]; 5 × 10^−1 μg/ml", "value": 4773}, {"measurement": "proliferation of human mononuclear cells (3H methyl-thymidine)", "setting": "human mononuclear cells [6]; 5 × 10^−2 μg/ml", "value": 5802}, {"measurement": "effect on proliferation of human mononuclear cells", "setting": "human mononuclear cells [6]; any concentration that was tested", "value": "*The concentrations that induced proliferation range from 5 × 10^−1 to 1 × 10^−1 μg. No significant effect was found for TeO2 at any concentration that was tested."}, {"measurement": "proliferation, 3HT uptake", "setting": "[1]; Test A, 1 μg/ml", "value": 1563, "unit": "counts per minute"}, {"measurement": "proliferation, 3HT uptake", "setting": "[1]; Test A, 1 × 10^−2 μg/ml", "value": 3108, "unit": "counts per minute"}, {"measurement": "proliferation, 3HT uptake", "setting": "[1]; Test A, 1 × 10^−3 μg/ml", "value": 2867, "unit": "counts per minute"}, {"measurement": "proliferation, 3HT uptake", "setting": "[1]; Test A, 1 × 10^−4 μg/ml", "value": 5540, "unit": "counts per minute"}, {"measurement": "proliferation, 3HT uptake", "setting": "[1]; Test A, 1 × 10^−5 μg/ml", "value": 3442, "unit": "counts per minute"}, {"measurement": "proliferation, 3HT uptake", "setting": "[1]; Test A, 5 × 10^−1 μg/ml", "value": 4667, "unit": "counts per minute"}, {"measurement": "proliferation, 3HT uptake", "setting": "[1]; Test A, 5 × 10^−2 μg/ml", "value": 2515, "unit": "counts per minute"}, {"measurement": "proliferation, 3HT uptake", "setting": "[1]; Test A, 7 × 10^−1 μg/ml", "value": 2475, "unit": "counts per minute"}, {"measurement": "proliferation, 3HT uptake", "setting": "[1]; Test B, 1 μg/ml", "value": 3275, "unit": "counts per minute"}, {"measurement": "proliferation, 3HT uptake", "setting": "[1]; Test B, 1 × 10^−2 μg/ml", "value": 3077, "unit": "counts per minute"}, {"measurement": "proliferation, 3HT uptake", "setting": "[1]; Test B, 1 × 10^−3 μg/ml", "value": 3800, "unit": "counts per minute"}, {"measurement": "proliferation, 3HT uptake", "setting": "[1]; Test B, 1 × 10^−4 μg/ml", "value": 2925, "unit": "counts per minute"}, {"measurement": "proliferation, 3HT uptake", "setting": "[1]; Test B, 1 × 10^−5 μg/ml", "value": 3645, "unit": "counts per minute"}, {"measurement": "proliferation, 3HT uptake", "setting": "[1]; Test B, 5 × 10^−1 μg/ml", "value": 5405, "unit": "counts per minute"}, {"measurement": "proliferation, 3HT uptake", "setting": "[1]; Test B, 5 × 10^−2 μg/ml", "value": 4280, "unit": "counts per minute"}, {"measurement": "proliferation, 3HT uptake", "setting": "[1]; Test B, 7 × 10^−1 μg/ml", "value": 4302, "unit": "counts per minute"}]}, {"compound": "C1CO[Te]2(O1)OCCO2", "note": "[preparation 3]", "values": [{"measurement": "solubility", "setting": "[4]", "value": "16 ± 0.4; mg Te/100 ml PBS"}]}, {"compound": "equimolar complex of TeO2 and ethylene glycol [Example 7(a)]", "values": [{"measurement": "increase of proliferation of human mononuclear cells", "setting": "human mononuclear cells [7]", "value": 10, "unit": "fold"}, {"measurement": "proliferation of human mononuclear cells (3H methyl-thymidine)", "setting": "human mononuclear cells [6]; 1 × 10^−4 μg/ml, listed as Ex. 7(a)", "value": "4321 and 2332"}, {"measurement": "proliferation of human mononuclear cells (3H methyl-thymidine)", "setting": "human mononuclear cells [6]; 5 × 10^−2 μg/ml, listed as Ex. 7(a)", "value": "5953 and 5532"}, {"measurement": "proliferation, 3HT uptake", "setting": "[1]; Test B, 1 μg/ml", "value": 9315, "unit": "counts per minute"}, {"measurement": "proliferation, 3HT uptake", "setting": "[1]; Test B, 1 × 10^−2 μg/ml", "value": 6418, "unit": "counts per minute"}, {"measurement": "proliferation, 3HT uptake", "setting": "[1]; Test B, 1 × 10^−3 μg/ml", "value": 5167, "unit": "counts per minute"}, {"measurement": "proliferation, 3HT uptake", "setting": "[1]; Test B, 1 × 10^−4 μg/ml", "value": 5372, "unit": "counts per minute"}, {"measurement": "proliferation, 3HT uptake", "setting": "[1]; Test B, 1 × 10^−5 μg/ml", "value": 6397, "unit": "counts per minute"}, {"measurement": "proliferation, 3HT uptake", "setting": "[1]; Test B, 5 × 10^−1 μg/ml", "value": 8688, "unit": "counts per minute"}, {"measurement": "proliferation, 3HT uptake", "setting": "[1]; Test B, 5 × 10^−2 μg/ml", "value": 5538, "unit": "counts per minute"}, {"measurement": "proliferation, 3HT uptake", "setting": "[1]; Test B, 7 × 10^−1 μg/ml", "value": 5250, "unit": "counts per minute"}, {"measurement": "IL-2 content, cpm", "setting": "IL-2; 1 μg/ml H2O as drinking water over 4 days", "value": 32843, "unit": "cpm"}, {"measurement": "IL-2 content, cpm", "setting": "IL-2; [8]", "value": 42500, "unit": "cpm"}, {"measurement": "Percent increase as compared to control", "setting": "IL-2; [8]", "value": "+30%"}, {"measurement": "IL-2 content, cpm", "setting": "IL-2; 25 μg/ml H2O as drinking water over 4 days", "value": 36815, "unit": "cpm"}, {"measurement": "inducing lymphokine production when given orally", "setting": "IL-2; orally in an aqueous diluent", "value": "active"}]}]}
